# Laboratory results reported in US5120735A, “Antifungal composition” (Kaken Pharmaceutical Co., Ltd., priority 1987, dated 1992).
# Assays:
# [1] = tested on: Candida albicans MTU 12021; assay: Agar dilution MIC, single and combined use; assay type: cell-based; details: Candida albicans, MTU12021; single use; Sabouraud agar, 37° C., 48 hours; read-out: Minimum Inhibitory Concentration (MIC)
# Protocol: (1) The effects of the combined use of Compound 1 with various imidazole antifungal agents against Candida albicans MTU 12021 strain were examined as follows. […] Then, distilled water containing 0.1% by weight of Tween 80 was added thereto to obtain drug solutions having a concentration of from 1 to 1,000 μg/ml.
# (§1) 1 ml of each drug solution diluted twice was introduced into a sterilized Petri dish, and 8 ml of Sabouraud agar medium was added to prepare a agar plate. Thus, a series of agar plates for the combinations having various concentrations were prepared.
# (§2) Candida albicans MTU 12021 strain cultured on a Sabouraud agar medium for 24 hours, was suspended in a saline, and a cells suspension having a concentration of 2×10^6 spores/ml was prepared by counting the number of spores by a hemacytometer. Then, 50 μl of the cells suspension was inoculated to the above agar plates by means of a microplanter (manufactured by Sakuma Seisakusho). The inoculated agar plates were cultured at 37° C. for 48 hours, whereupon the presence or absence of the growth of the strain was examined.
# (§3) Culture medium: Sabouraud agar medium
# (§4) Culturing condition: 37° C. for 48 hours
# (§5) Strain used: Candida albicans MTU 12021
# [2] = tested on: Candida albicans MTU 12021; assay: Checker board method, combined use of Compound 1 with miconazole or ketoconazole; assay type: cell-based; further: key: +: Growth observed; -: No growth observed
# Protocol: as §1, §2, §3, §4, §5
# [3] = tested on: Candida albicans MTU 12021; assay: Influence of combined use of Compound 1 with miconazole over the growth curve; assay type: cell-based; details: 24 and 48 hours, FIG. 1
# Protocol: Upon expiration of 24 hours and 48 hours, 0.1 ml of the culture medium was sampled and spread on a Sabouraud agar plate containing 0.5% of yeast extract, followed by culturing at 37° C. for 48 hours. Then, the number of colonies were counted to determine the number of survived fungi.
# [4] = tested on: Candida albicans MTU 12021; assay: Disk method (growth inhibition ring); assay type: cell-based
# Protocol: (3) The effects of the combined use of Compound 1 with miconazole or ketoconazole were examined by a disk method.
# Candida albicans MTU 12021 stain was mixed with a Sabouraud agar medium to have a concentration of 5×10^4 spores/ml, and 10 ml thereof was poured into a sterilized Petri dish to obtain an inoculated agar plate.
# 50 mg of each of Compound 1, miconazole and ketoconazole was impregnated to a disk (Toyo Filter paper of 8 mm in diameter), and the disk was placed on the inoculated agar plate, followed by culturing at 37° C. for 96 hours, whereupon the synergistic effects were evaluated based on the growth inhibition ring thereby appeared.
# ICR male mice = assay: Acute toxicity, oral, mice; assay type: in vivo; details: up to 5,000 mg/kg, ICR male mice of 5 weeks old
# Excerpt: To examine the acute toxicity of the arylmethylamine antifungal agents used in the composition of the present invention, Compounds 1 and 2 were selected, and they were, respectively, suspended in 0.5% methyl cellulose and orally administered to ICR male mice of 5 weeks old (body weight: 26-28 g) at a dose corresponding to the body weight.
# [5] = tested on: Candida albicans MTU 12021; assay: Agar dilution MIC, single and combined use; assay type: cell-based; details: Compound 1 combined with non-azole agents; Table 4
smiles,measurement,setting,value
"CN(Cc1ccc(C(C)(C)C)cc1)Cc1cccc2ccccc12 [Compound 1, N-4-tert-butylbenzyl-N-methyl-1-naphthalenemethylamine]",MIC,[1],> 100 µg/mL
same,Growth,"[2]; Compound 1 0.39 μg/ml, ketoconazole 0",+
same,Growth,"[2]; Compound 1 0.78 μg/ml, ketoconazole 0",+
same,Growth,"[2]; Compound 1 1.56 μg/ml, ketoconazole 0",+
same,Growth,"[2]; Compound 1 3.13 μg/ml, ketoconazole 0",+
same,Growth,"[2]; Compound 1 3.13 μg/ml, miconazole 0",+
same,Growth,"[2]; Compound 1 12.5 μg/ml, ketoconazole 0",+
same,Growth,"[2]; Compound 1 12.5 μg/ml, miconazole 0",+
same,Growth,"[2]; Compound 1 25 μg/ml, ketoconazole 0",+
same,Growth,"[2]; Compound 1 25 μg/ml, miconazole 0",+
same,Growth,"[2]; Compound 1 50 μg/ml, ketoconazole 0",+
same,Growth,"[2]; Compound 1 50 μg/ml, miconazole 0",+
same,Growth,"[2]; Compound 1 100 μg/ml, ketoconazole 0",+
same,Growth,"[2]; Compound 1 100 μg/ml, miconazole 0",+
same,Growth,[2]; Compound 1 0.39 + ketoconazole 0.1 μg/ml,+
same,Growth,[2]; Compound 1 0.39 + ketoconazole 0.2 μg/ml,+
same,Growth,[2]; Compound 1 0.39 + ketoconazole 0.39 μg/ml,+
same,Growth,[2]; Compound 1 0.39 + ketoconazole 0.78 μg/ml,+
same,Growth,[2]; Compound 1 0.39 + ketoconazole 1.56 μg/ml,+
same,Growth,[2]; Compound 1 0.39 + ketoconazole 3.13 μg/ml,+
same,Growth,[2]; Compound 1 0.39 + ketoconazole 12.5 μg/ml,+
same,Growth,[2]; Compound 1 0.39 + ketoconazole 25 μg/ml,-
same,Growth,[2]; Compound 1 0.39 + ketoconazole 50 μg/ml,-
same,Growth,[2]; Compound 1 0.39 + ketoconazole 100 μg/ml,-
same,Growth,[2]; Compound 1 0.78 + ketoconazole 0.1 μg/ml,+
same,Growth,[2]; Compound 1 0.78 + ketoconazole 25 μg/ml,-
same,Growth,[2]; Compound 1 0.78 + ketoconazole 50 μg/ml,-
same,Growth,[2]; Compound 1 0.78 + ketoconazole 100 μg/ml,-
same,Growth,[2]; Compound 1 1.56 + ketoconazole 0.1 μg/ml,+
same,Growth,[2]; Compound 1 1.56 + ketoconazole 25 μg/ml,-
same,Growth,[2]; Compound 1 1.56 + ketoconazole 50 μg/ml,-
same,Growth,[2]; Compound 1 1.56 + ketoconazole 100 μg/ml,-
same,Growth,[2]; Compound 1 3.13 + ketoconazole 0.1 μg/ml,+
same,Growth,[2]; Compound 1 3.13 + ketoconazole 25 μg/ml,-
same,Growth,[2]; Compound 1 3.13 + ketoconazole 50 μg/ml,-
same,Growth,[2]; Compound 1 3.13 + ketoconazole 100 μg/ml,-
same,Growth,[2]; Compound 1 3.13 + miconazole 0.39 μg/ml,+
same,Growth,[2]; Compound 1 3.13 + miconazole 0.78 μg/ml,+
same,Growth,[2]; Compound 1 3.13 + miconazole 1.56 μg/ml,+
same,Growth,[2]; Compound 1 3.13 + miconazole 3.13 μg/ml,+
same,Growth,[2]; Compound 1 3.13 + miconazole 12.5 μg/ml,+
same,Growth,[2]; Compound 1 3.13 + miconazole 25 μg/ml,+
same,Growth,[2]; Compound 1 3.13 + miconazole 50 μg/ml,-
same,Growth,[2]; Compound 1 3.13 + miconazole 100 μg/ml,-
same,Growth,[2]; Compound 1 6.25 + ketoconazole 0.1 μg/ml,+
same,Growth,[2]; Compound 1 6.25 + ketoconazole 25 μg/ml,-
same,Growth,[2]; Compound 1 6.25 + ketoconazole 50 μg/ml,-
same,Growth,[2]; Compound 1 6.25 + ketoconazole 100 μg/ml,-
same,Growth,[2]; Compound 1 6.25 + miconazole 0.39 μg/ml,+
same,Growth,[2]; Compound 1 6.25 + miconazole 0.78 μg/ml,+
same,Growth,[2]; Compound 1 6.25 + miconazole 1.56 μg/ml,+
same,Growth,[2]; Compound 1 6.25 + miconazole 3.13 μg/ml,+
same,Growth,[2]; Compound 1 6.25 + miconazole 12.5 μg/ml,+
same,Growth,[2]; Compound 1 6.25 + miconazole 25 μg/ml,+
same,Growth,[2]; Compound 1 6.25 + miconazole 50 μg/ml,-
same,Growth,[2]; Compound 1 6.25 + miconazole 100 μg/ml,-
same,Growth,[2]; Compound 1 12.5 + ketoconazole 0.1 μg/ml,+
same,Growth,[2]; Compound 1 12.5 + ketoconazole 25 μg/ml,-
same,Growth,[2]; Compound 1 12.5 + ketoconazole 50 μg/ml,-
same,Growth,[2]; Compound 1 12.5 + ketoconazole 100 μg/ml,-
same,Growth,[2]; Compound 1 12.5 + miconazole 0.39 μg/ml,+
same,Growth,[2]; Compound 1 12.5 + miconazole 0.78 μg/ml,+
same,Growth,[2]; Compound 1 12.5 + miconazole 50 μg/ml,-
same,Growth,[2]; Compound 1 12.5 + miconazole 100 μg/ml,-
same,Growth,[2]; Compound 1 25 + ketoconazole 0.1 μg/ml,+
same,Growth,[2]; Compound 1 25 + ketoconazole 25 μg/ml,-
same,Growth,[2]; Compound 1 25 + ketoconazole 50 μg/ml,-
same,Growth,[2]; Compound 1 25 + ketoconazole 100 μg/ml,-
same,Growth,[2]; Compound 1 25 + miconazole 0.39 μg/ml,+
same,Growth,[2]; Compound 1 25 + miconazole 0.78 μg/ml,+
same,Growth,[2]; Compound 1 25 + miconazole 50 μg/ml,-
same,Growth,[2]; Compound 1 25 + miconazole 100 μg/ml,-
same,Growth,[2]; Compound 1 50 + ketoconazole 0.1 μg/ml,+
same,Growth,[2]; Compound 1 50 + ketoconazole 25 μg/ml,-
same,Growth,[2]; Compound 1 50 + ketoconazole 50 μg/ml,-
same,Growth,[2]; Compound 1 50 + ketoconazole 100 μg/ml,-
same,Growth,[2]; Compound 1 50 + miconazole 0.39 μg/ml,+
same,Growth,[2]; Compound 1 50 + miconazole 0.78 μg/ml,+
same,Growth,[2]; Compound 1 50 + miconazole 50 μg/ml,-
same,Growth,[2]; Compound 1 50 + miconazole 100 μg/ml,-
same,Growth,[2]; Compound 1 100 + ketoconazole 0.1 μg/ml,+
same,Growth,[2]; Compound 1 100 + ketoconazole 25 μg/ml,-
same,Growth,[2]; Compound 1 100 + ketoconazole 50 μg/ml,-
same,Growth,[2]; Compound 1 100 + ketoconazole 100 μg/ml,-
same,Growth,[2]; Compound 1 100 + miconazole 0.39 μg/ml,+
same,Growth,[2]; Compound 1 100 + miconazole 0.78 μg/ml,+
same,Growth,[2]; Compound 1 100 + miconazole 50 μg/ml,-
same,Growth,[2]; Compound 1 100 + miconazole 100 μg/ml,-
same,influence over growth curve,[3],fungistatic or fungicidal effects were enhanced
same,effect of combined use with miconazole on inhibitory ring,"[4]; Compound 1 disk on periphery of incomplete inhibitory ring of miconazole disk, FIG. 2",a portion of the incomplete inhibitory ring is completely inhibited
same,"effects of combined use, Compound 1 with ketoconazole",[4]; FIG. 3,remarkable effects of the combined use
same,death,ICR male mice,no instance of death
same,synergistic effects of combined use with non-azole antifungal agents,[5],no synergistic effects were observed
